The values that follow come from patent US20070231871A1, “Process for an Enzymatic Oxygenation by Direct Electrochemical Regeneration of the Fad-Dependent Monooxygenase” (priority 2004, published 2007).

Structures are written as SMILES. Marks after values point to notes of the source that are not given here.

In this assay the target is T1, Styrene monooxygenase (StyAB), FAD-dependent monooxygenase component (StyA) (Pseudomonas sp, UniProt O50214).
T1 construct: made in house; host or cells: Escherichia coli JM101
T1 sequence (O50214 1-415): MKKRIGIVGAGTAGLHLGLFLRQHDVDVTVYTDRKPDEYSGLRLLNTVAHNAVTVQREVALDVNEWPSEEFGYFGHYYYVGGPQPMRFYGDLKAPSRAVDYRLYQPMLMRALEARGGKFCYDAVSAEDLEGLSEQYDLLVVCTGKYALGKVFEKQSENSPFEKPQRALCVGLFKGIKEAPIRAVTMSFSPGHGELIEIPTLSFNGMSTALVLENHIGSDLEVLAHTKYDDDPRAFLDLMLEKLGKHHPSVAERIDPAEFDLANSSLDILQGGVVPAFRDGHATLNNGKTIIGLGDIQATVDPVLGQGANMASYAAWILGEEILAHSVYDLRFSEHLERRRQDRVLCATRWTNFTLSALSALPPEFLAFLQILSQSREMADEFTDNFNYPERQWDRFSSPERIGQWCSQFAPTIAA
Nature of the assay: Electroenzymatic epoxidation of styrene derivatives by StyA with direct electrochemical FAD regeneration. The conditions noted are these: for ee-value: optical purity of the (S)-epoxide product of the electroenzymatic epoxidation. It is filed as biochemical. The method, then: Initial experiments on the electroenzymatic epoxidation were performed with trans-β-methyl styrene as substrate. Electrolyses were performed potentiostatically applying a cathode potential of −550 mV vs. Ag/AgClsat. No product formation was detectable when either StyA or FAD was omitted from the reaction medium. […] Similarly, a broad variety of diversely substituted vinylaromatic compounds could be transformed to the more than 98% optically pure corresponding (S) epoxides (Table 1).
StyA was enriched from recombinant Escherichia coli JM101 as described previously^[35]. The purity of the lyophilized biocatalyst was approximately 70% (as determined by SDS gel-electrophoresis).
Electrolyses were performed in a thermostatted stirred tank reactor. Cylindrical carbon felt served as cathode (working electrode) and the potential was adjusted versus a saturated Ag/AgClsat. reference electrode. The dimensions of the working electrode are given a macroscopic area (corresponding to an average of 27.1±2.1 mg cm^−2). Conditions of either a divided or an undivided cell were chosen. For the divided cell, the Pt-wire counter electrode was placed in a dialysis membrane; otherwise a Pt-foil (Ø1 cm) was used. After supplementing the reactor with the reaction components indicated a cathode potential of −550 mV vs. Ag/AgClsat was applied. In case of divided cell, O2 was supplied by heterogeneous intake of air (intake rates were estimated with a Hewlett Packard soap film flowmeter; under the conditions of an undivided cell, O2 was generated at the counter electrode.
Reaction rates (and enzyme performances calculated thereof were determined based on the product formation as determined by HPLC using protocols previously reported.^[34, 35]

Setting [1] is: potassium phosphate buffer 50 mM pH 7.5, T = 30° C., c(StyA) = 2.13 μM, c(FAD) = 300 μM, catalase 480 U mL^−1, substrate 2 mM, cathode 14 cm^2, −550 mV vs. Ag/AgClsat.

Compound `C=Cc1ccccc1` had a Rate under setting [1] of 28.1 U g^−1. On to `c1ccc([C@H]2CO2)cc1`, for which the ee-value was 98.5%. On to `C=C(C)c1ccccc1`, for which the Rate under setting [1] turned out to be 14.6 U g^−1. In turn, `C[C@]1(c2ccccc2)CO1` gave an ee-value of 99.5%. `C1=Cc2ccccc2CC1`: the Rate under setting [1] is on record as 58.9 U g^−1.

`c1ccc2c(c1)CC[C@H]1O[C@@H]21` gave an ee-value of 99.2%.

Take `C=Cc1cccc(Cl)c1`: the Rate (as general conditions but T = 25° C., activity determined after 15 min) was 27.7 [b] U g^−1.

`Clc1cccc([C@H]2CO2)c1` gave an ee-value of 98.1%. In turn, `C[C@@H]1O[C@H]1c1ccccc1` [(1S,2S)-1-phenylpropylene oxide] came in with an ee-value of more than 99.9%. For the setting “substrate trans-β-methyl styrene, −550 mV vs. Ag/AgClsat, all reaction components present”, the “Optical purity of product” value was “practically enantiopure”.

For the compound `C/C=C/c1ccccc1` [trans-β-methyl styrene], the Rate under setting [1] is on record as 35.5 U g^−1.
